Measurements: US5998624A, “Haloisoquinoline carboxamide” (Emory University, priority 1998, dated 1999)
“And” between values parts separate entries of the source, which are not always exact repeats. Identical values can stand only once.

Tested on: PK receptor sites
Test: not given
Conditions: background statement; cited from earlier work

Compound	binding to PK receptor sites
CCC(C)N(C)C(=O)c1cc2ccccc2c(-c2ccccc2Cl)n1 (stereo not shown) [PK11195, 1-(2-chlorophenyl)-N-methyl-N-(alkyl)-3-isoquinoline carboxamide]	binds strongly

Target: T1, PK receptors (Rattus norvegicus, UniProt P16257)
T1 construct: Tissue preparations of rat kidney homogenate; from tissue; host or cells: rat kidney homogenate
Test: Inhibition of [^3 H]PK11195 binding to PK receptors in rat kidney homogenate
Conditions: [^3 H]PK11195, 60 min, room temperature, Average, N-2
Method: The binding affinities of representative compounds of the invention are given in Table I. In this study, the compounds having the generic structure defined, supra, were tested for their ability to inhibit the binding of a known PK receptor antagonist [^3 H]PK11195, to PK receptors in a rat kidney homogenate preparation.
Tissue preparations of rat kidney homogenate were incubated with [^3 H]PK11195 and competitors (i.e. 9a-d & 23a-c, at 12 concentrations ranging from 10^-11 to 10^-6 […]) in an assay buffer. The assay mixture was incubated for 60 min. at room temperature with stirring and the resulting samples were rapidly filtered through Whatman GF/B glass-fiber filters pretreated with 0.2% protamine base and washed with cold buffer, pH 7.4. The filters were counted in a liquid scintillation counter at an efficiency of 65% for tritium saturation binding, Scatchard and competition experiments were analyzed with the iterative nonlinear least squares curve-fitting program. For comparison, for PK11195, X is Cl, Y and Z are H, and R is 2-butyl. Compounds having the lower Ki values were the most As effective inhibitors, and therefore bound the PK-receptor at the lowest concentrations. Compounds of the invention are also useful for radiation therapy, based on their specific affinity for glial tumor cells.

Ki	Compound
3.1 nM and 1.6 nM	CCC(C)N(C)C(=O)c1cc2ccccc2c(-c2ccc(I)cc2)n1 (stereo not shown) [H H I CH3 CHCH2 CH3]
1.3 nM	CN(CCCF)C(=O)c1cc2ccccc2c(-c2cccc(I)c2)n1 [H I H CH2 CH2 CH2 F, 1-(3-iodophenyl)-N-methyl-N-(3-fluoropropyl)-3-isoquinolinecarboxamide]
63.1 nM	CN(CCCF)C(=O)c1cc2ccccc2c(-c2ccc(I)cc2)n1 [H H I CH2 CH2 CH2 F, 1-(4-iodophenyl)-N-methyl-N-(3-fluoropropyl)-3-isoquinolinecarboxamide]
0.26 nM	CN(CCCF)C(=O)c1cc2ccccc2c(-c2ccccc2I)n1 [H H CH2 CH2 CH2 F, 1-(2-iodophenyl)-N-methyl-N-(3-fluoropropyl)-3-isoquinolinecarboxamide]
421 nM	CN(CCF)C(=O)c1cc2ccccc2c(-c2ccccc2I)n1 [I H H CH2 CH2 F, 1-(2-iodophenyl)-N-methyl-N-(2-fluoroethyl)-3-isoquinolinecarboxamide]
2.8 nM and 1.53 nM	CCC(C)N(C)C(=O)c1cc2ccccc2c(-c2cccc(I)c2)n1 (stereo not shown) [H I H CH3 CHCH2 CH3]
